Source: patent US20240301408A1, “MICRORNA 195 COMPOSITIONS AND METHODS FOR TREATING COGNITIVE IMPAIRMENT” (UNITED STATES GOVERNMENT AS REPRESENTED BY THE DEPARTMENT …, priority 2021, published 2024)
“Also recorded” adds a separate entry of the source.

Tests used:
exosomal miR-195-5p = experiment: brain and serum exosomal miR-195-5p levels in mice treated with synj1-lowering agents; assay type: in vivo, mouse; conditions: for serum exosomal miR-195 levels: treated 5×FAD mice versus vehicle controls, N=6-8/group; for brain exosomal miR-195-5p levels: treated mice versus controls
Description: As disclosed herein, a study was performed to examine exosomal fractions of brain and serum samples of synj1 haploinsufficiency mice (ApoE3 synj1^+/− and ApoE4 synj1^+/−) as well as of mice treated with synj1-lowering agents (SynaptoCpd #9 and Cpd #6). Exosomes were purified using sucrose gradient fractionation methods and the purity of exosome fractions were evaluated by western blot analysis of exosomal protein markers such as ALIX, and uptake studies of fluorescence tagged exosomes by human iPSC-derived astrocyte cultures. […] In addition, serum exosomal miR-195-5p levels were positively correlated with brain exosomal miR-195-5p levels and cognitive performance (NOR preference index and Y maze SAP scores), and reversely correlated with brain insoluble pTau and synj1 protein levels in drug-treated mouse cohorts (FIG. 19C).

ApoE receptors = experiment: miR-195 levels in ApoE-/- neurons treated with ApoE3-CM or ApoE4-CM in the presence of RAP; assay type: cell-based, mouse; conditions: N=3/group
Description: Mouse Neuronal and human iPSC culture. Primary cortical neurons were cultured (Zhu L et al., Proc Natl Acad Sci USA 2015, and Zhu L et al., J Biol Chem 2013) before being fixed and stained for confocal microscopy analysis (Zeiss LSM) (Berg I et al., Nat Protoc 2010). In some conditions, bovine serum albumin (BSA) or receptor-associated protein (RAP) was included in the cultured media (N=3/group). Alternatively, cultured neurons were transfected with adeno-associated virus 2 (AAV2)-containing miR-195-5p or miR-374 or scramble controls for 5 days before subjected to analysis. […]
Statistical analysis. […] Levels of miR-195-5p and miR-374 were normalized to U6 and RNU6B (internal controls) while synj1 mRNA normalized to GAPDH and 18s, and then expressed as Log2fold of changes when compared to controls. Levels of synj1, dyn1, pTau, Tau, and holoAPP were normalized to β-actin levels and expressed as a percentage of the control. Absolute Aβ42, Aβ40, pTau, Tau, and ApoE concentrations were quantitatively determined by ELISA and expressed as a percentage of the control. […] Pearson correlation coefficients were calculated to determine the linear relationship between the two variables. […]

miR-195 levels (ApoE receptors; ApoE4 CM+RAP (ApoE4 CM+BSA −3.193±0.144)) | miR-195 levels (ApoE receptors; RAP in the presence of ApoE3-CM) | Compound | serum exosomal miR-195 levels (exosomal miR-195-5p) | brain exosomal miR-195-5p levels (exosomal miR-195-5p)
– | – | COCCOC(=O)C1=C(C)NC(C)=C(C(=O)OC(C)C)C1c1ccc(C(C)(C)C)cc1 (stereo not drawn) [Cpd #9] | much higher; also recorded: significantly elevated | much higher
– | – | COCCOC(=O)C1=C(C)NC(C)=C(C(=O)OC(C)C)C1c1ccc(C(F)(F)F)cc1 (stereo not drawn) [Cpd #6] | much higher; also recorded: significantly elevated | much higher
−2.678±0.054 log2FC | −1.648±0.125 log2FC | RAP: ApoE-receptor associated protein, an inhibitor of ApoE receptors | – | –
